Assay results as given in patent US6288067A, “Prophylactic or therapeutic agents for drug-induced renal injury” (Suntory Limited, priority 1998, dated 2001).

How the values were obtained:
[1] = Blood pressure by the tail-cuff method in cyclosporin-induced renal injury rats; type: in vivo, Sprague-Dawley rats; settings: until the end of observation (6 weeks); cyclosporin 15 mg/kg/day s.c.; BH4 group: plus BH4 dihydrochloride 10 mg/kg/day oral
Experimental: (§1) Sprague-Dawley rats at the age of 8 to 10 weeks (supplied from Charles River) (300 g) were divided into the following three experimental groups, and examined by comparison. The animals were grown with a low-salt (0.05%) feed during the experimental period of 6 weeks, and treated for 5 weeks from the second to last weeks of the experiment as follows.
(§2) Each group was observed during the experimental period of 6 weeks. The blood pressure, renal cortical NOS activity and blood BP level were determined by the procedures described below. After 6 weeks, blood was collected from the abdominal aorta under anesthesia with phenobarbital, and then the kidney was perfused with physiological saline, then extracted and histologically examined for the effects of BH4 administration on cyclosporin-induced renal injury.
Blood pressure was measured by the tail-cuff method at the start of the experiment and after 2, 4 and 6 weeks.
(§3) Group-to-group statistic analyses were made by two-way ANOVA. In the following analyses, the significance level was p<0.05.

[2] = tested on: renal tissue NOS; test: Renal cortical NOS activity (3H-citrulline produced from 3H-arginine) in cyclosporin-induced renal injury rats; type: in vivo, Sprague-Dawley rats; settings: orally administered BH4, cyclosporin-treated rats
Experimental: as §1, §2
NOS activity was determined by measuring ^3 H-citrulline produced by renal tissue NOS using 3H-arginine.
as §3

[3] = Biopterin (BP) level in blood by HPLC in cyclosporin-induced renal injury rats; type: in vivo, Sprague-Dawley rats; settings: average; cyclosporin 15 mg/kg/day s.c. plus BH4 dihydrochloride 10 mg/kg/day oral
Experimental: as §1, §2, §3

[4] = tested on: NOS (NADPH-diaphorase); test: Renal histochemistry, NADPH-diaphorase staining; type: in vivo, Sprague-Dawley rats
Experimental: as §1, §2
(§4) Sections were prepared from frozen renal tissues and stained with NADPH-diaphorase for evaluating NOS activity on the tissues. The tissues were also stained with a monoclonal antibody against the macrophage cell membrane antigen ED-1 to examine the NOS isoform.

[5] = tested on: ED-1-positive cells; test: Renal histochemistry, staining with monoclonal antibody against macrophage cell membrane antigen ED-1; type: in vivo, Sprague-Dawley rats; settings: frozen renal tissues; cyclosporin 15 mg/kg/day s.c.; BH4 group: plus BH4 dihydrochloride 10 mg/kg/day oral
Experimental: as §1, §2, §4

[6] = tested on: cyclosporin-induced renal injury rats; test: Histopathological findings (arteriolopathy) in renal tissue samples, HE and periodic acid-Shiff staining; type: in vivo, Sprague-Dawley rats
Experimental: as §1, §2
After collecting urine and measuring blood pressure at week 6, the animals were abdominally incised under anesthesia, bled from the abdominal aorta and perfused with physiological saline via this site. The extracted kidney was fixed in a 10% formaldehyde solution, embedded in paraffin, then sliced by a microtome into renal tissue samples of 4 μm. The samples were stained with hematoxylin/eosin (HE) and periodic acid-Shiff. The incidences of pathological findings, i.e. arteriolopathy in the rat renal tissue samples were examined by comparison.
as §3

[7] = Acute toxicity, oral, rats; settings: rat, in vivo, po
[8] = tested on: rats; test: Acute toxicity, oral, rats; settings: rats, oral route
[9] = as reported in Japanese Patent Public Disclosure No. 25323/84; cited from earlier work

Row | SMILES | Blood pressure [1] | vascular endothelial NOS activity level / function [2] | decrease of blood BP level as compared with CyA group [3] | NADPH-diaphorase stainability ([4]; frozen renal tissues, cyclosporin 15 mg/kg/day s.c., BH4 group: plus BH4 dihydrochloride 10 mg/kg/day oral) | functions of vascular endothelial NOS ([4]; renal histochemistry, cyclosporin plus oral BH4 dihydrochloride) | invasions of ED-1-positive cells [5] | histopathological findings of arteriolopathy, conclusion in words ([6]; model rats, BH4 orally administered) | arteriolopathy, result in words with significance ([6]; p<0.0001, cyclosporin 15 mg/kg/day s.c., BH4 group: plus BH4 dihydrochloride 10 mg/kg/day oral) | Percentage of the incidence of pathological findings in renal tissues: Arteriolopathy ([6]; ± SE, week 6, control group 0.00 ± 0.00, cyclosporin 15 mg/kg/day s.c., BH4 group: plus BH4 dihydrochloride 10 mg/kg/day oral) | LD50 [7] | toxicity in words [8] | toxicity in words [9]
1 | C[C@H](O)[C@H](O)[C@H]1CNc2nc(N)[nH]c(=O)c2N1 [BH4, (6R)-L-erythro-5,6,7,8-tetrahydrobiopterin] | kept at a normal level | increased vascular endothelial NOS activity level | 0.002 nmol | recovered the NADPH-diaphorase stainability | normalized the functions of vascular endothelial NOS | decreased invasions of ED-1-positive cells | remarkably improved histopathological findings | significantly (p<0.0001) inhibited arteriolopathy | 36.814 ± 2.093% | ≥ 2000 mg/kg | little toxicity | 
2 | C[C@H](O)[C@H](O)C1CNc2nc(N)[nH]c(=O)c2N1 (stereo partly drawn) [(6R,S)-5,6,7,8-tetrahydrobiopterin] |  |  |  |  |  |  |  |  |  |  |  | only slightly toxic
